Source: patent publication US5273992A, “Method for reducing sickle erythrocyte dehydration and delaying the occurrence of erythrocyte sickling in-situ” (Beth Israel Hospital Assoc. Inc., priority 1992, dated 1993)
Several values for one entry are separate records, joined by “and”; a condition that tells them apart may be missing. Identical values can stand only once. Entries after “also recorded” stand apart in the source; their conditions may differ. Like-named read-outs stand apart in the source and are kept apart here.

How the values were obtained:
[1] = molecular target: T1, Ca^2+-activated K+ channel (Gardos channel) of sickle erythrocytes (Homo sapiens, UniProt O15554); test: Ca^2+-activated ^86Rb influx in sickle (SS) erythrocytes; format: cell-based; conditions: medium 20 mM salt (low ionic strength); for IC50: Dixon plot analysis, read-out: Inhibition of ^86Rb influx, IC50
T1 construct: Blood was collected after obtaining informed consent from patients; endogenous in cells; host or cells: erythrocytes (SS) from patients homozygous for Hb S

[2] = molecular target: T1, Ca^2+-activated K+ channel (Gardos channel) of sickle erythrocytes; test: as above; format: cell-based
Experimental: Patients homozygous for Hb S disease were selected. Blood was collected after obtaining informed consent from patients followed in the Hematology Division Clinic at Brigham and Women's Hospital and in the Boston Comprehensive Sickle Cell Center at Boston City Hospital. None of the patients had been transfused in the preceding 120 days.
Other experiments were carried out in normal saline (140 mM NaCl, 2 mM KCl, 10 mM tris-HCl, pH 8.0). At the end of the incubation, triplicate samples of each cell suspension were spun at 3,000 g for 10 min. The supernatant was then removed and a smaller volume of medium containing A23187 (60 μM CaCl2, and ^86 Rb was added to achieve a final Hct of 4-5%. Aliquots of cell suspension were taken at specified times (1, 3, and 5 min) and spun through 0.8 ml of medium with 5 mM EGTA and a 0.4 ml cushion of butyl-phthalate. The resultant supernatant and the upper layer of oil were carefully removed, the tube contents frozen at -80° C. and the tube tip containing the cell pellet cut off and counted.

[3] = molecular target: T2, Ca^2+-activated K+ channel of SS cells (Homo sapiens, UniProt O15554); test: Displacement of ^125I-ChTX binding in sickle erythrocytes; conditions: for ^125I-ChTX displacement, % of total: 90 min
T2 construct: Blood was collected after obtaining informed consent from patients; endogenous in cells; host or cells: erythrocytes (SS) from patients homozygous for Hb S
Experimental: White cells were removed by passing 0.8 mL of packed red cells through a 5 ml syringe containing a mixture of equal parts of alfa-cellulose and microcrystalline cellulose as originally described by Beutler and West [J. Lab. Clin. Med. 88:328-333 (1976)]. Red cells were washed 3 times in binding medium containing 18 mM NaCl, 2 mM KCl, 10 mM tris-Cl, pH 8.0, 230 mM sucrose and 0.25% bovine serum albumin. A suspension was then made in the same medium at 15% Hct. […] Tubes containing cell suspension were gently rotated for 90 min at room temperature. At the end of the incubation, aliquots of 1 ml were pelleted by microfuge and washed 3 times at 4° C. with a solution containing 200 mM NaCl, 10 mM tris-Cl, pH 8.0. The washed red cell pellet was then lysed in 1 ml of 0.01% Acationox®, and counted in a gamma counter. Aliquots of binding medium were counted prior to addition of cells and at the end of the binding assay.
^125 I-ChTX is a specific ligand of the Ca^2 + activated K+ channel of human red cells. […] To examine the interaction between CLT and the Ca^2 +activated K+ channel of SS cells, the question whether CLT can displace ^125 I-ChTX (50 pM) bound to SS cells was tested.

[4] = molecular target: Gardos channel of sickle erythrocytes (Homo sapiens, UniProt O15554); test: Membrane potential (Em) of SS cells with activated Gardos channel; format: cell-based
Experimental: Measurements of the proton distribution ratio in unbuffered media in the presence of the proton ionophore CCCP allow estimation of the red cell membrane potential (Em). Erythrocytes were washed twice at room temperature with unbuffered medium of the desired composition and added with stirring to 5 ml of the same medium to a final Hct of 5%. All media contained 100 μM ouabain, 10 μM bumetanide, 10 μM DIDS, 10 μM methazolamide and 50 μM CCCP (50 mM stock solution in DMSO. The medium was maintained at 37° C., and pH was recorded for one min prior and 10 min following addition of the red cells. Inhibitors were added to the specified final concentration by appropriate dilution from 10 mM stocks. For internal pH measurements, 20 μl of 10% (v/v) Triton X-100 were added to the cell suspension in unbuffered medium under stirring, and the pH of the resultant lysate measured and assumed to equal pHi. Em was calculated from the equation [formula] [pHi --pHo ], as detailed in Halpern et al, Am. J. Physiol. 257:c986-c996 (1989).
When the Gardos channel is activated, the increased permeability for K+ shifts the membrane potential away from the equilibrium potential for Cl- (ECI) toward the equilibrium potential for K+(EK). This effect is magnified with the Cl-permeability is inhibited by DIDS.

[5] = test system: AE1 (band 3) chloride/bichloride exchanger; test: ^35SO4 influx into AA erythrocytes (AE1 function); format: cell-based, human
Experimental: The protocol used by Schofield et al. [Nature 355:836-838 (1992)] was used to measure ^35 SO2- uptake in AA erythrocytes.
To determine if the inhibition of Ca^2 +-activated ^86 Rb flux was secondary to an inhibitory effect on the membrane Cl-permeability, the effect of the various compounds on the ^35 SO4 influx was assessed. This assay is a measure of function of the major transport system for red cells, the AE1 (band 3) chloride/bichloride exchanger.

[6] = test system: SS cells (sickle erythrocytes); format: cell-based, human; conditions: for Inhibition of dehydration of SS cells (in words): 60 μmol A23187/L cells, 100 μM CaCl2; for Cell K content at end of incubation: SS cells, A23187 + Ca^2+, average of three experiments (control 279±20, Ca^2+ alone 84.9±24)
Experimental: Cells were incubated for 60 min at 37° C. in a medium containing 140 mM NaCl, 4 mM KCl, 100 μM CaCl2, 1 mM K-phosphate buffer, pH 7.40, 10 mM tris-MOPS, pH 7.40, at 1-2% Hct. A23187 was subsequently added to a final concentration of 60 μmol/l cells under stirring. At the specified time intervals, the cell suspension was diluted with an equal amount of medium containing 5 MM EGTA and 0.1% BSA. The red cells were then washed four times with the same medium at 37° C. This procedure allowed for chelation of extracellular Ca^2 + and removal of A23187. An aliquot of cells washed in this medium was used to measure the distributions of cell volume and hemoglobin concentration with the H2-Technicon blood analyzer, while the remaining cells were washed four times with choline washing solution (144 mM Choline Cl, 1 mM MgCl2, 10 mM tris-MOPS, pH 7.40 at 4° C.) for measurements of internal Na and K contents.
291-300; Ohnishi et al., Biochim Biophys. Acta 1010:199-203 (1989): Horruchi et al., Blood 71:46-51 (1988)]. However, the results are highly dependent on the protocol used for deoxygenation and reoxygenation of SS cells. We reasoned that the inhibitory effect of CLT and other antimycotics on the dehydration mediated by the Ca^2 +-activated K+ channel should be assessed under conditions of maximal activation of this pathway. If the inhibitor is effective in blocking dehydration in these conditions, it should be able to block dehydration due to transient activation of the channel as during sickling. Accordingly, cells were exposed to A23187 in the presence of 100 μM CaCl2 in a medium containing 140 mM NaCl, 4 mM KCI, at pH 7.40, with or without the transport inhibitors.
After removal of ionophore and chelation of Ca, cell volume and hemoglobin concentration were measured on a cell per cell basis with the Technicon H-2 blood analyzer. […] Distribution histograms for red cell volume and hemoglobin concentration are presented in the lower panel. Arbitrarily established gates (hemoglobin concentration<28 and >41 g/dL; cell volume<60 and>120 fL) are used to define hypo- and hyperchromic cells and micro- and macrocytic cells, respectively. The distribution in the control SS cells (incubated with A23187 in the presence of 1 mM EGTA) resembles a teardrop, with reticulocytes and cells with low HC and high MCV in the top side of middle and left quadrant, discocytes in the central quadrant, and dehydrated dense cells in the right side of the middle quadrant. SS cells exposed to A 23187 and Ca^2+ were markedly dehydrated, as shown by the shift of the hemoglobin concentration (HC) histogram to higher values and by the increased HC values (FIG. 4). […] Measurements of cell cation content at the end of the incubation support the view that these effects are due to inhibition of K loss. […]

[7] = in vivo; cited from earlier work
[8] = test system: Ca^2+ activated K+ channel of human red cells; conditions: normal red cells; 50 nM cold ChTX; cited from earlier work
[9] = SS erythrocytes, medium 140 mM salt (normal saline)
[10] = SS erythrocytes, medium 20 mM salt
[11] = Inhibition of ^86Rb influx, IC50
[12] = SS erythrocytes, medium 20 mM salt, read-out: ^125I-ChTX displacement, IC50
[13] = SS erythrocytes, medium 140 mM salt (normal saline), Dixon plot analysis, read-out: Inhibition of ^86Rb influx, IC50

Gardos channel of sickle erythrocytes, sequence (O15554 whole entry): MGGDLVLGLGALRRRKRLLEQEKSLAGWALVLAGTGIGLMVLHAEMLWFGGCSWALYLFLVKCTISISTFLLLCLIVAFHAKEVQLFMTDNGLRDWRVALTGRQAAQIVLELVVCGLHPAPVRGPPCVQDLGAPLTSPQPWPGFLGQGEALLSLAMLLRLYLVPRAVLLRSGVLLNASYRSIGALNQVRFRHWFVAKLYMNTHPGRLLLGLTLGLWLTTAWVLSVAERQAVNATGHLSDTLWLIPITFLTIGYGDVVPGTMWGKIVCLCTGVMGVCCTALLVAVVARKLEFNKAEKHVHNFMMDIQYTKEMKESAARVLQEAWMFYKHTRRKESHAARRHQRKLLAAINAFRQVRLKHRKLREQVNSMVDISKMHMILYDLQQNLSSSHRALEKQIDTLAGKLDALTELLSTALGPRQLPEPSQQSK

CCS(=O)(=O)CCn1c([N+](=O)[O-])cnc1C [Tinidazole]
Inhibition of ^86Rb influx, % maximum [1]: 21%
Inhibition of ^86Rb influx at 10 μM (in words) ([2]; SS erythrocytes): only marginally
Inhibition of ^86Rb influx, % maximum [2, 9]: 3%

OC(Cn1cncn1)(Cn1cncn1)c1ccc(F)cc1F [Fluconazole]
^125I-ChTX displacement, % of total [3, 10]: 19%
Inhibition of ^86Rb influx, % maximum [1]: 0%
Inhibition of Ca^2+-activated ^86Rb influx / K+ transport (in words) ([2]; SS erythrocytes): non-active
Inhibition of Ca^2+-activated ^86Rb influx / K+ transport (in words) ([2]; SS erythrocytes, listed as fluconazole): no inhibition
Inhibition of ^86Rb influx, % maximum [2, 9]: 0%

Clc1ccccc1C(c1ccccc1)(c1ccccc1)n1ccnc1 [Clotrimazole, 1-[(2-chlorophenyl)diplenylmethyl]-1H-imidazole]
Effect on K+ permeability and membrane potential (Em) ([4]; SS cells, A23187 and 50 μM CaCl2): markedly reduced K+ permeability and shifted Em from EK
Inhibitory potency on membrane potential changes ([4]; low ionic strength vs normal saline, listed as CLT): higher in low ionic strength conditions than in normal saline
Influx of the anion SO4 [5]: not affected
^125I-ChTX displacement (in words) [3]: displaced ^125 I-ChTX in a dose-dependent manner
^125I-ChTX displacement, % of total ([3]; sickle erythrocytes): 74.5%
Inhibition of dehydration of SS cells (in words) ([6]; 10 μM CLT, 50 nM ChTX, listed as CLT): more pronounced than that by 50 nM ChTX; also recorded: substantially prevented dehydration; also recorded: markedly inhibited the dehydration of sickle cells
Cell K content at end of incubation ([6]; 10 μM CLT): 210±30 mmol/Kg Hb
Inhibition of Ca^2+-activated ^86Rb influx / K+ transport (in words) [2]: markedly inhibited
Inhibition of ^86Rb influx, % maximum [2]: 87% and 93%

Clc1ccc(COC(Cn2ccnc2)c2ccc(Cl)cc2Cl)c(Cl)c1 (stereo not shown) [Miconazole]
IC50 [3]: 165 nM
^125I-ChTX displacement, % of total ([3]; sickle erythrocytes): 57%
Marrow hyoplasia, share of the use cases [7]: 40%
Inhibition of ^86Rb influx, % maximum [2]: 63% and 49%
IC50 [2, 11]: 110 nM and 100 nM

Clc1ccc(COC(Cn2ccnc2)c2ccc(Cl)cc2Cl)cc1 (stereo not shown) [Econazole, 1-[2-[(4-chlorophenyl)methoxyl]-2-(2,14-dichlorophenyl)ethyl]-1H-imidacole]
IC50 [3]: 205 nM
^125I-ChTX displacement, % of total ([3]; sickle erythrocytes): 37%
Inhibition of ^86Rb influx, % maximum [2]: 31% and 47%
IC50 [2, 11]: 270 nM and 575 nM

CHARYBDOTOXIN
Total binding displaced by excess cold ChTX [8]: 60-70%
^125I-ChTX displacement, % of total [3, 10]: 74.5%
IC50 [3, 12]: 0.033 nM
Inhibition of ^86Rb influx, % maximum [1]: 95.5%
IC50 [1]: 0.096 nM
Inhibition of dehydration of SS cells (in words) ([6]; 10 μM CLT, 50 nM ChTX): partially inhibited dehydration
Cell K content at end of incubation ([6]; 50 nM ChTX): 192.8±39 mmol/Kg Hb
Inhibition of ^86Rb influx, % maximum [2, 9]: 52%
IC50 [2, 13]: 0.36 nM

Cc1ncc([N+](=O)[O-])n1CC(O)CCl (stereo not shown) [Ornidazole]
Inhibition of ^86Rb influx, % maximum [1]: 11%
Inhibition of ^86Rb influx at 10 μM (in words) ([2]; SS erythrocytes): only marginally
Inhibition of ^86Rb influx, % maximum [2, 9]: 21%

Cc1ncc([N+](=O)[O-])n1CCO [Metronidazole, 2-methyl-5-nitroimidazole-1-ethanol]
^125I-ChTX displacement, % of total [3, 10]: 49%
IC50 [3, 12]: 580 nM
Inhibition of ^86Rb influx, % maximum [1]: 28%
IC50 [1]: 850 nM
Inhibition of Ca^2+-activated ^86Rb influx / K+ transport (in words) ([2]; SS erythrocytes): partially inhibited
Sequence / rank of inhibitory potency on the Gardos pathway ([2]; SS erythrocytes): clotrimazole>miconazole>econazole>metronidazole
Inhibition of ^86Rb influx, % maximum [2, 9]: 36%
IC50 [2, 13]: 440 nM
